Measurements: US9707281B2, “Pharmaceutical compositions and methods for digesting atherosclerotic plaques” (Northwestern University, priority 2010, dated 2017)

System: Human arterial plaque samples
Test: in vitro dissolution and digestion of atherosclerotic plaque specimens (percent reduction of plaque weight)
Details: EDTA 0.5-2 mg/ml, β-cyclodextrin 1-100 mMol, tPA 0.5-2 mg/ml, p<0.05
Experimental: Atherosclerotic plaques from surgical endarterectomies were obtained from various anatomic sites. All experiments were performed by cutting a given plaque into equal parts by weight then exposing them to various agents alone and in combination to determine the most optimal digestion solution. The optimal concentration and conditions for plaque dissolution and digestion were determined for ethylenediaminetetraacetic acid (EDTA), β-cyclodextrin, tPA, collagenase type I, III, IV, and V. Weights of each specimen were obtained prior to exposure of each solution and at different time points to determine percent of digested versus undigested plaque. Additional variables that were assessed and optimized include: 1) different combinations of EDTA, β-cyclodextrin, and the collagenases, 2) temperature, 3) pH, and 4) agitation.
Atherosclerotic plaques were obtained from patients undergoing endarterectomies. The optimal concentration and conditions for plaque dissolution and digestion were determined for ethylenediaminetetraacetic acid (EDTA), β-cyclodextrin, and collagenase type I, III, IV, and V. Variables that were assessed included: 1) combination of different agents, 2) time, 3) temperature, 4) pH, and 5) agitation. Weight of each specimen was measured at different time points to determine percent of undigested plaque. […]

| SMILES | reduction in plaque weight, agent alone |
| --- | --- |
| O=C(O)CN(CCN(CC(=O)O)CC(=O)O)CC(=O)O [EDTA, ethylenediaminetetraacetic acid] | 15% |
| OC[C@H]1O[C@@H]2O[C@H]3[C@H](O)[C@@H](O)[C@@H](O[C@H]4[C@H](O)[C@@H](O)[C@@H](O[C@H]5[C@H](O)[C@@H](O)[C@@H](O[C@H]6[C@H](O)[C@@H](O)[C@@H](O[C@H]7[C@H](O)[C@@H](O)[C@@H](O[C@H]8[C@H](O)[C@@H](O)[C@@H](O[C@H]1[C@H](O)[C@H]2O)O[C@@H]8CO)O[C@@H]7CO)O[C@@H]6CO)O[C@@H]5CO)O[C@@H]4CO)O[C@@H]3CO [β-cyclodextrin] | 2% |
